Source: ChEMBL document CHEMBL1201862, “PubChem BioAssay data set” (2004)
The source made the active and inactive calls.

Columns and labels:
[1] = molecular target: DNA damage-inducible transcript 3 protein (Mus musculus, UniProt P35639); type: functional, Cricetulus griseus
[2] = molecular target: Eukaryotic translation initiation factor 4H (Homo sapiens, UniProt Q15056); assay: inhibitors of translation initiation factor eIF4H – SAR follow-up (AID 435011); type: functional
[3] = molecular target: Polyadenylate-binding protein 1 (Homo sapiens, UniProt P11940); assay: PABP inhibition in translation initiation, SAR follow-up (AID 435018); type: functional
Sequence of Polyadenylate-binding protein 1 (P11940 whole entry): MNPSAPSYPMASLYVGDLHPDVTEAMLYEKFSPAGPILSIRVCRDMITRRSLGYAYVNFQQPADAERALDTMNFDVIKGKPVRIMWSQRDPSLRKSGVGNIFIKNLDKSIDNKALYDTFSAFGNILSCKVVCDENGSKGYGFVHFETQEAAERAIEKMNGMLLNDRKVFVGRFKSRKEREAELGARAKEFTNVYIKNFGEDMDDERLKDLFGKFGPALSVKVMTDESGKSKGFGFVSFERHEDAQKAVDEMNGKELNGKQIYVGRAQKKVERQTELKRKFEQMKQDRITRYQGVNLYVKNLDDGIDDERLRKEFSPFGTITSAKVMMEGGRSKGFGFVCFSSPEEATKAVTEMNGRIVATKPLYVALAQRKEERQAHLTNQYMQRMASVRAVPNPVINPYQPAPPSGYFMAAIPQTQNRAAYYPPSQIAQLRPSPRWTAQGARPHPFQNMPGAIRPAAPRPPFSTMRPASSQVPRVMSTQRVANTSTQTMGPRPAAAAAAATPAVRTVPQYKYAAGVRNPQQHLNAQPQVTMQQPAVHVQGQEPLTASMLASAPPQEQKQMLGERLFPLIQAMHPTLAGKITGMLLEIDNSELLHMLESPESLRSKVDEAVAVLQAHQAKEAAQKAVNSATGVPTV

[4] = molecular target: Tyrosine-protein phosphatase non-receptor type 12 (Homo sapiens, UniProt Q05209); assay: SAR Selectivity Analysis of small molecule inhibitors of PEST using pCAP in a fluorescence assay. [Related pubchem assays (depositor defined):AID1779, AID1784, AID2135]; type: functional
Sequence of Tyrosine-protein phosphatase non-receptor type 12 (Q05209 whole entry): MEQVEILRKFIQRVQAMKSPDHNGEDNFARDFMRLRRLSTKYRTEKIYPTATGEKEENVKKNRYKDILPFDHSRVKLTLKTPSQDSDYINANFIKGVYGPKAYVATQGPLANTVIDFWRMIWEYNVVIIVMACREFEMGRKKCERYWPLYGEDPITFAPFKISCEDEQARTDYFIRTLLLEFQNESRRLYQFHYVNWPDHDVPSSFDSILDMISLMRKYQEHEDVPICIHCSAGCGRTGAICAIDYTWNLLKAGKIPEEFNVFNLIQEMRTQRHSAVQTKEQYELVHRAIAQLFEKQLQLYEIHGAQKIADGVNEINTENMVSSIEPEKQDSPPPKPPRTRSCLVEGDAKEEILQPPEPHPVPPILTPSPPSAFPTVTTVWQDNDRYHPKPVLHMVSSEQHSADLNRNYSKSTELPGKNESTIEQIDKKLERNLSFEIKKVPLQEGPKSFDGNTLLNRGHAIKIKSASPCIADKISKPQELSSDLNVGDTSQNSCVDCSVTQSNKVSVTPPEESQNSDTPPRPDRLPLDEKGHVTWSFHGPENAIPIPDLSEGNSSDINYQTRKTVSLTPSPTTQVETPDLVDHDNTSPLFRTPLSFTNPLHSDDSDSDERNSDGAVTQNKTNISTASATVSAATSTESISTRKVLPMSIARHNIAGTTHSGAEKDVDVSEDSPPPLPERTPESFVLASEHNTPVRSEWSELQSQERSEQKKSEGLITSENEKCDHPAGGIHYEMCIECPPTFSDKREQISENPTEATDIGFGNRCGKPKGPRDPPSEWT

[5] = molecular target: T1, Tyrosine-protein phosphatase non-receptor type 7 (Homo sapiens, UniProt P35236); assay: redox-active compounds inhibiting HePTP phosphatase – biochemical, fluorescence, mechanism study (AID 2068); type: functional
T1 sequence (P35236 whole entry): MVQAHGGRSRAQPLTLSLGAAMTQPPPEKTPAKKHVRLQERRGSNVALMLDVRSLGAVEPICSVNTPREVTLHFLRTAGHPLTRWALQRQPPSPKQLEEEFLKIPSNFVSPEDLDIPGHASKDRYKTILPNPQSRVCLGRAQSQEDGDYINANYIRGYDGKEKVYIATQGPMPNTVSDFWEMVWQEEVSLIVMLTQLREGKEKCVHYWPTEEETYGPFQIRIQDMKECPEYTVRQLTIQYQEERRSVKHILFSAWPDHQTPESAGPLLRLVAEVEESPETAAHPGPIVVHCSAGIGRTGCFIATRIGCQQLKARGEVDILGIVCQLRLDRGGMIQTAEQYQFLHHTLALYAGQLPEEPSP

[6] = molecular target: T2, Tyrosine-protein phosphatase non-receptor type 22 (Homo sapiens, UniProt Q9Y2R2); assay: inhibition of lymphoid tyrosine phosphatase LYP – biochemical, pCAP fluorogenic substrate, fluorescence, set 3, SAR follow-up (AID 449727); type: functional
T2 sequence (Q9Y2R2 whole entry): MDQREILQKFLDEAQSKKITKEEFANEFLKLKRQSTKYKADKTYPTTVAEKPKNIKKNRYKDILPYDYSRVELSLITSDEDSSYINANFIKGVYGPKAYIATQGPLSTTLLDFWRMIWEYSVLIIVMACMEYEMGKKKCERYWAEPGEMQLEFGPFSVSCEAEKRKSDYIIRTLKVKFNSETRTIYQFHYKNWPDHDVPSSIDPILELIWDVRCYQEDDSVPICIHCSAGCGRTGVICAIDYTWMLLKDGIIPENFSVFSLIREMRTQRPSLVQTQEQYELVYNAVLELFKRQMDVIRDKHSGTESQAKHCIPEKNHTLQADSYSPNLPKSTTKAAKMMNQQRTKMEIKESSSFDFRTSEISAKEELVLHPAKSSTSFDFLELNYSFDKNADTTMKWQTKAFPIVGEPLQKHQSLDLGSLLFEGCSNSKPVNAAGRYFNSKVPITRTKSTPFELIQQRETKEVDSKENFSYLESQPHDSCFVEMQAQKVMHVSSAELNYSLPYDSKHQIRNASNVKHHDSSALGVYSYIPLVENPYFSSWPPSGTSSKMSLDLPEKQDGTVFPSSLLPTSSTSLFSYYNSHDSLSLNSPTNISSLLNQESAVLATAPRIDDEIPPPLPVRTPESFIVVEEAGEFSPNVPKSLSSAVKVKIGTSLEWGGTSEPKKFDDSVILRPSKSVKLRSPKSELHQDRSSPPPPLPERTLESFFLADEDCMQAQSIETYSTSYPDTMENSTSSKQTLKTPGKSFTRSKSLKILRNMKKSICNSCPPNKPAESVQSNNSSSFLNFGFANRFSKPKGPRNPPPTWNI

[7] = molecular target: T3, Dual specificity protein phosphatase 6 (Rattus norvegicus, UniProt Q64346); type: functional;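 note: confirmatory in vitro dose-response testing of MKP-3 inhibition; recombinant His-tagged MKP-3 made in E. coli BL21 with OMFP substrate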
T3 sequence (Q64346 whole entry): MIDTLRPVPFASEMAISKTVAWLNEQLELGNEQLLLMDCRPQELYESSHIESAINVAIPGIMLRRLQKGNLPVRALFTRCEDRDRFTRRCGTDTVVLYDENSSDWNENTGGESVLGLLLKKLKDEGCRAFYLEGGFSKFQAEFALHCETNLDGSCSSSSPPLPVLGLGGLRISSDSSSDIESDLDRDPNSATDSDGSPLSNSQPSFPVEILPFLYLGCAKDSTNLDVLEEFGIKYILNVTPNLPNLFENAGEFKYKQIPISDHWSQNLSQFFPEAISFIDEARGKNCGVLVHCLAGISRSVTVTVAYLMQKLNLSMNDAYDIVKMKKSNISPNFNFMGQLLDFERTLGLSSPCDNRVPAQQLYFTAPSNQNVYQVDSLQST

[8] = molecular target: T2, Tyrosine-protein phosphatase non-receptor type 22; assay: SAR LYP1 Fluorescent Assay using OMFP substrate for In Vitro dose response studies - Set 3. [Related pubchem assays (depositor defined):AID1779, AID1784, AID2140, AID2686]; type: functional
[9] = molecular target: T4, Dual specificity protein phosphatase 3 (Homo sapiens, UniProt P51452); assay: SAR VHR1 Fluorescent Assay for In Vitro dose response studies. [Related pubchem assays (depositor defined):AID1654, AID1661, AID1878, AID1992, AID2004, AID2070, AID2085]; type: functional
T4 sequence (P51452 whole entry): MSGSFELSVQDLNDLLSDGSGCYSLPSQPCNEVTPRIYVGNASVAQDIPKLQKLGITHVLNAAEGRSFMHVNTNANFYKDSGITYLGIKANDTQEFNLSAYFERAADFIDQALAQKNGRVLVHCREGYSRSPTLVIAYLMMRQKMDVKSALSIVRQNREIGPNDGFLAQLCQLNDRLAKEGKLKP

[10] = molecular target: T4, Dual specificity protein phosphatase 3; assay: SAR VHR1 absorbance Assay for In Vitro dose response studies. [Related pubchem assays (depositor defined):AID1654, AID1661, AID1878, AID1992, AID2004]
[11] = molecular target: Ion channel NompC (Danio rerio, UniProt Q7T1G6); assay: Dose response cell-based high-throughput screening assay for agonists of the transient receptor potential channel N1 (TRPN1). [Related pubchem assays (depositor defined):AID1424, AID1448]; type: functional
[12] = molecular target: T5, High affinity choline transporter 1 (Homo sapiens, UniProt Q9GZV3); assay: human choline transporter blockers, potency – cell-based, 5-point CRC, membrane potential dye, dose response (AID 504840); type: functional
T5 sequence (Q9GZV3 whole entry): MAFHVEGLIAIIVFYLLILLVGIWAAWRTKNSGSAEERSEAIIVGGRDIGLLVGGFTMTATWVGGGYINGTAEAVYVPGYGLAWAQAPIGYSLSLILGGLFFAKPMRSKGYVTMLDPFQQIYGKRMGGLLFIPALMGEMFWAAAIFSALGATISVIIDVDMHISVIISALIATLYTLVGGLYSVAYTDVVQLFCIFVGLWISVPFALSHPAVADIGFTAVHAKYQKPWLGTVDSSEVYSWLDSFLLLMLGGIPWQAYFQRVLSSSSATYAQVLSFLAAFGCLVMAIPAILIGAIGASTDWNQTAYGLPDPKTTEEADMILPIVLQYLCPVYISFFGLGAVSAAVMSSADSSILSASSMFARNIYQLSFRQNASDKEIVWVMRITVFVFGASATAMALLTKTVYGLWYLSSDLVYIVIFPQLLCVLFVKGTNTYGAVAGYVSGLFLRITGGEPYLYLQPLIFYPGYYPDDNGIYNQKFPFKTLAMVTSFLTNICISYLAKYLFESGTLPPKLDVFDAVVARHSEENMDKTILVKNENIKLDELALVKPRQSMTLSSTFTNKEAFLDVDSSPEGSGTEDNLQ

[13] = molecular target: Mucolipin-3 (Homo sapiens, UniProt Q8TDD5); assay: Fluorescence counterscreen assay for […] agonists: dose response cell-based high-throughput screening assay to identify agonists of the transient receptor potential channel ML3 (TRPML3). [Related pubchem assays: 1424, 1448 ]; type: functional
Sequence of Mucolipin-3 (Q8TDD5 whole entry): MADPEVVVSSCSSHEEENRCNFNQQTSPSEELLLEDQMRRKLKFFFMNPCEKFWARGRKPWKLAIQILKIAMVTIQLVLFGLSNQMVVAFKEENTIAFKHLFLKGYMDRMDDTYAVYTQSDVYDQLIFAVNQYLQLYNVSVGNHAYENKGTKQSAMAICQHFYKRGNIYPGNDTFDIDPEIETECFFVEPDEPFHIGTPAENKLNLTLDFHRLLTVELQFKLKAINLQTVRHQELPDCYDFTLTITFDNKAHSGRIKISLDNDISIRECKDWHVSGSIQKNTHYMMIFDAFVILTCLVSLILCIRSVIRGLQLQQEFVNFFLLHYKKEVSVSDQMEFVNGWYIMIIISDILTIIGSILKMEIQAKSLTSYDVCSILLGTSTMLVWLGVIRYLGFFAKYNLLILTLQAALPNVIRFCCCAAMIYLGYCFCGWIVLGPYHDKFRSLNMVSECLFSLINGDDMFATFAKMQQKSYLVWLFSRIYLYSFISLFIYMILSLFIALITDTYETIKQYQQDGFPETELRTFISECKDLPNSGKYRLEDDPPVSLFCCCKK

[14] = viability of HCT116 lacking mutant beta-catenin – cell-based, human colon tumor, dose response (AID 1045); type: functional;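 note: HCT116 colon tumor cells with beta catenin knocked out; cells exposed to compound for 60 hours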
[15] = viability of PTEN-deleted HCT116 cells – cell-based, HCT116 PTEN knockout, dose response (AID 1047); type: functional;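 note: HCT116 colon tumor cells with PTEN knocked out; cells exposed to compound for 60 hours before readout; potency for loss of cell viability measured by luminescence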
[16] = system: HEK293; assay: EBV LMP1 TES2 canonical NF-kB signalling blockers – cell-based, HEK293, luciferase, cherry-pick, dose response (AID 588343); type: functional; details: Homo sapiens
[17] = molecular target: Delta-type opioid receptor (Homo sapiens, UniProt P41143); assay: SAR Analysis of Antagonists of the DOR Receptor using an Image-Based Assay - Set 3. [Related pubchem assays (depositor defined):AID1777, AID1785]; type: functional;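 note: U2OS cells expressing DOR1 and beta-arrestin GFP stimulated with 100 nM SNC80; imaging of GFP-tagged beta-arrestin moving into spots after receptor activation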
Sequence of Delta-type opioid receptor (P41143 whole entry): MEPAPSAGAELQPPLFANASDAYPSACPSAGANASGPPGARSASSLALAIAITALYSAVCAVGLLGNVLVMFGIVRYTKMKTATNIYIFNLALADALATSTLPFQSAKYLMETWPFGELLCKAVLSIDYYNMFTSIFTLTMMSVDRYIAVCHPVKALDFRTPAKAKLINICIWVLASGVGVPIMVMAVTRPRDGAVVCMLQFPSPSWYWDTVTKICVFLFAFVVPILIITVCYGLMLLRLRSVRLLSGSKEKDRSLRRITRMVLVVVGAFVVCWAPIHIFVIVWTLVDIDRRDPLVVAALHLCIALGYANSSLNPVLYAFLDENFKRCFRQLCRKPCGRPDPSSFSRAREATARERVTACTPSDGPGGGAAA

[18] = molecular target: Mu-type opioid receptor (Homo sapiens, UniProt P35372); assay: SAR Analysis of Antagonists of the MOR Receptor using an Image-Based Assay - Set 3. [Related pubchem assays (depositor defined):AID1777, AID1785, AID1786, AID1966, AID2133, AID2136, AID2284, AID2285, AID2420]; type: functional
Sequence of Mu-type opioid receptor (P35372 whole entry): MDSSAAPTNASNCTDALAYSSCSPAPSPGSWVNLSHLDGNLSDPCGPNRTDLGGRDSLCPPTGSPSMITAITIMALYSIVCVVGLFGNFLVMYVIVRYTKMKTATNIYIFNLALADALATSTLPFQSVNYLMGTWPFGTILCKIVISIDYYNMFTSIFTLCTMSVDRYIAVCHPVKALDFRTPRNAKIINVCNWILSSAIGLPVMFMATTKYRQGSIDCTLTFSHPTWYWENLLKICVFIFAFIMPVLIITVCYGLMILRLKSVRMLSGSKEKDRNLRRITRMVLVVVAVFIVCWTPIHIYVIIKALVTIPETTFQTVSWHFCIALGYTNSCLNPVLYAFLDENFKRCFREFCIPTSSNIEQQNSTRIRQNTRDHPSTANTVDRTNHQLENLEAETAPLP

[19] = molecular target: T6, Kappa-type opioid receptor (Homo sapiens, UniProt P41145); assay: SAR analysis of Antagonists of the Kappa Opioid Receptor (KOR) using an Image-Based Assay - Set 4. [Related pubchem assays (depositor defined):AID1777, AID1785]; type: functional
T6 sequence (P41145 whole entry): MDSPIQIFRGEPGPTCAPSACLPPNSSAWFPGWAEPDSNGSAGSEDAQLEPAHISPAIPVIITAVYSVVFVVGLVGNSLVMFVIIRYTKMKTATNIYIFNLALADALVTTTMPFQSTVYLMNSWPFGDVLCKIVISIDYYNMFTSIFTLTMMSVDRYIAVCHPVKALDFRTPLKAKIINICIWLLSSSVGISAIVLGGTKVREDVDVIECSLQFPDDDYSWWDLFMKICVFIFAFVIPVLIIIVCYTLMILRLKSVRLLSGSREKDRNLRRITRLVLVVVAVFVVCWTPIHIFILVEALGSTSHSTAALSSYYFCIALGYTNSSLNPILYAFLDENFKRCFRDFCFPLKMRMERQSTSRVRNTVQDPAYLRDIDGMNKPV

[20] = molecular target: T6, Kappa-type opioid receptor; assay: SAR analysis of small molecule antagonists of the kappa opioid receptor via a luminescent beta-arrestin assay - Set 4. [Related pubchem assays (depositor defined):AID1777, AID1778, AID1785, AID1786, AID1966, AID2133, AID2136, AID2285]; type: functional
[21] = molecular target: T6, Kappa-type opioid receptor; assay: SAR analysis of small molecule antagonists of the kappa opioid receptor via a luminescent beta-arrestin assay - Set 6. [Related pubchem assays (depositor defined):AID1777, AID1778, AID1785, AID1786, AID1966, AID2133, AID2136, AID2285]; type: functional
[22] = A High Throughput Confirmatory Assay used to Identify Novel Compounds that Inhibit Mycobacterium Tuberculosis in the absence of Glycerol.; type: functional
[23] = HepG2 cell cytotoxicity, dose response, cytotoxicity control for non-replicating M. tuberculosis project (AID 489018); type: functional; details: Mycobacterium tuberculosis
[24] = cells; type: functional
[25] = THP-1 cell cytotoxicity, dose response, cytotoxicity control for non-replicating M. tuberculosis project (AID 489025); type: functional
[26] = microbe, parasite or virus in culture; type: functional; details: Mycobacterium tuberculosis
[27] = molecular target: Type-1 angiotensin II receptor (Homo sapiens, UniProt P30556); assay: agonist activity at AGTR1 – cell-based, uHTS hits, selectivity assay for APJ receptor agonist project, dose response (AID 488865); type: functional;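 note: beta-arrestin recruitment to AT1 measured by enzyme fragment complementation luminescence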
Sequence of Type-1 angiotensin II receptor (P30556 whole entry, the tested form may be a part): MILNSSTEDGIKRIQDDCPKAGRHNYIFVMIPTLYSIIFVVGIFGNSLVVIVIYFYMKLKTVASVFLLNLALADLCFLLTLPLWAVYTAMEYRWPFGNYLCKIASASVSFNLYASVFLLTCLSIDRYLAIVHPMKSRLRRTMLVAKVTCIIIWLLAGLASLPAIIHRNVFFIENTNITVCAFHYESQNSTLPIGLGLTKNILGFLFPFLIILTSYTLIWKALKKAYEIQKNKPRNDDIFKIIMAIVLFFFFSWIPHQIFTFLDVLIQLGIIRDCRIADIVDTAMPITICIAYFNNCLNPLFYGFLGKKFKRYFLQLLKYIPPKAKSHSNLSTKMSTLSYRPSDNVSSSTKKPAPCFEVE

Sequence of DNA damage-inducible transcript 3 protein (P35639 whole entry): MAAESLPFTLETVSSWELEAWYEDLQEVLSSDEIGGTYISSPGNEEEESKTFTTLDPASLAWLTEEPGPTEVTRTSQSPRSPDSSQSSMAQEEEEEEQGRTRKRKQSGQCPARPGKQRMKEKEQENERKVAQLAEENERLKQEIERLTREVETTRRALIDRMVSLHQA

Cc1nc(SCC(=O)Nc2ccc(C)c(F)c2)c2oc3ccccc3c2n1
Absolute IC50 (CHOP) [1]: 10 µM

COc1cccc(/C=C2/NC(=O)N(CC(=O)Nc3ccc(C)cc3)C2=O)c1OCc1cccc(C(=O)O)c1
IC50 [2]: 10.6 µM (active)
IC50 [3]: > 100 µM (inactive)

O=C(COc1c(Cl)cccc1Cl)Oc1ccc([N+](=O)[O-])cc1
IC50 [4]: 42.5 µM (active)
IC50 [5]: 15.1 µM (active)
IC50 [6]: 63.7 µM (active)
IC50 [7]: > 99 µM (inactive)
IC50 [8]: > 100 µM (inactive)
IC50 [9]: > 99 µM (inactive)
IC50 [10]: > 100 µM (inactive)

CCCCN=C(S)Nc1ccc([N+](=O)[O-])cc1
EC50 [11]: > 29.9 µM (inactive)
IC50 [12]: 12 µM (active)
EC50 [13]: > 29.9 µM (not active)
EC50 [14]: 20.7 µM (active)
EC50 [15]: 19.6 µM (active)
AC50 [16]: 105 µM (active)

CC(C)N(CCNC(=O)c1ccc(CNS(=O)(=O)c2ccc(C3CCCCC3)cc2)cc1)Cc1ccccc1
IC50 [17]: > 32 µM (inactive)
IC50 [18]: 2.47 µM (active)
IC50 [19]: 1.22 µM (active)
IC50 [20]: > 20 µM (inactive)
IC50 [21]: > 20 µM (inactive)

CSc1ccc(NC(=O)Nc2cccn(Cc3ccccc3)c2=O)cc1
IC50 [22]: > 100 µM (active)
CC50 [23]: > 20 µM (active)
IC50 [24]: 11.4 µM (active)
CC50 [25]: > 40 µM (active)
CC50 [26]: > 40 µM (active)

CCOC(=O)C1=C(Cn2cnc3ccccc32)NC(=O)NC1c1cc(C)ccc1C (configuration not stated)
EC50 [27]: > 100 µM (inactive)
